These results are taken from patent US7598032B2, “Thermostable DNA polymerases incorporating nucleoside triphosphates labeled with fluorescent dyes” (Roche Molecular Systems, priority 1997, dated 2009).

Structures are written as SMILES.

In the test the target is T1, Thermus aquaticus (Taq) DNA polymerase variant G46D F667Y E681K (Thermus aquaticus, UniProt P19821, E681K/F667Y/G46D).
T1 construct: Expression vector pRDA3-2 contains the full-length Taq DNA polymerase gene; made in house; host or cells: E. coli DG116 (plasmid pLK113)
Briefly: Limiting template primer extension competition assay (ddNTP incorporation), G46D F667Y E681K Taq. Format: biochemical. As for the experimental part: The ability of the enzymes of this invention to efficiently incorporate nucleotides labeled with fluorescein family dyes is measured by ddNTP incorporation assays. One such assay is a primer extension competition assay conducted under conditions of limiting template. In this assay, a primer DG48 (5′-[…]), (SEQ ID NO: 11), bound to M13 mp18 template (Innis et al., 1988, Proc. Natl. Acad. Sci. USA 85:9436) is extended in the presence of [α-^33P]dCTP and excess enzyme with various levels of a fluorescently labeled ddNTP, Zowie-ddCTP. Because the incorporation of a ddCTP residue terminates the extension reaction, the more readily a DNA polymerase incorporates a ddCTP into an extended primer, the less [α-^33P]dCTP can be incorporated. Thus, as the efficiency of fluorescently labeled ddCTP incorporation increases, the extent of inhibition of DNA synthesis is increased. The reactions were also performed with various levels of an unlabeled ddCTP. […]
The relative abilities of G46D F667Y Taq, G46D F667Y E681K Taq and F730Y Tma30 DNA polymerases to incorporate a fluorescein dye family-labeled ddCTP were compared by use of a limiting template, primer extension competition assay. […] In this competition assay, because the incorporation of a ddCTP terminates the extension reaction, the more readily the polymerase incorporates a ddCTP into an extended primer, the less [α-^33P]dCTP can be incorporated. […]

T1 sequence (P19821 whole entry G46D/F667Y/E681K): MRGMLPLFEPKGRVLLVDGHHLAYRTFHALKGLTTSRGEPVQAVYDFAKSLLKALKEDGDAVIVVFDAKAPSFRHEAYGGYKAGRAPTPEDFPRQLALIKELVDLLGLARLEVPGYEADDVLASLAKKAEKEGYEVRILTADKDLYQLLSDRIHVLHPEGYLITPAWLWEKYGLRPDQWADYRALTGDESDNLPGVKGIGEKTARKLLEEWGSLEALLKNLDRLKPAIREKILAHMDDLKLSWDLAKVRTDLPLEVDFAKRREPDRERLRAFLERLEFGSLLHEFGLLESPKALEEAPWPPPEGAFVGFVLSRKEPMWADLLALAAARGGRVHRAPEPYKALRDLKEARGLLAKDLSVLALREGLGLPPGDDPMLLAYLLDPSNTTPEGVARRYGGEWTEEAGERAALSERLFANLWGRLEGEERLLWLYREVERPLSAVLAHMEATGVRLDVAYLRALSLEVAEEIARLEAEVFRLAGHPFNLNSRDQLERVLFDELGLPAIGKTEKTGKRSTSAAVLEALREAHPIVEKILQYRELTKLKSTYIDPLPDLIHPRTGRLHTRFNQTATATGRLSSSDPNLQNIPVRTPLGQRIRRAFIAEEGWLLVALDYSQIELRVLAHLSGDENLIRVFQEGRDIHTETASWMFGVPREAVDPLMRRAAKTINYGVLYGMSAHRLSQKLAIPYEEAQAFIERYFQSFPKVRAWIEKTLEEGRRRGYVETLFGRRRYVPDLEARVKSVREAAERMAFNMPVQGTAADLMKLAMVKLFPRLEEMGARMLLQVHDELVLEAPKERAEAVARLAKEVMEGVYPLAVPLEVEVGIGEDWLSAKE

In the case of `Nc1ccn([C@H]2CC[C@@H](COP(=O)(O)OP(=O)(O)OP(=O)(O)O)O2)c(=O)n1` [ddCTP], the IC50 (as a rule, the point on the concentration scale where inhibition reaches its midpoint) was 116 nM.
